Our source for the clot lysis time values is patent US20170368037A1, “PHARMACEUTICAL COMPOSITION FOR PROMOTION OF FIBRINOLYSIS” (Daiichi Sankyo Company, Limited, priority 2014, published 2017).

Assay [1] relates to fibrinolysis induced by tPA in human plasma. The assay is described as follows: Fibrinolysis assay (clot lysis time in human plasma containing tPA and TM), Example 2. The format is biochemical. As to conditions: tPA 180 ng/mL, TM 0.1 nM, vs control. How it is done:
Edoxaban was dissolved in DMSO to prepare a 10 mM solution, which was then stored at −30° C. Before use, the frozen product was thawed and diluted with DMSO and saline (DMSO concentration in test substance solution: 1.92%).
PCI (Sigma-Aldrich, Co. LLC.) was dissolved in Hepes buffer to prepare a 4.8 mg/mL solution, which was then stored at −30° C. Before use, the frozen product was thawed and diluted with Hepes buffer.
Hepes buffer, tPA solution, and PPP reagent were prepared in the same way as in Example 1(2). […]
70 μL of the human plasma sample (containing tPA and TM), 5 μL each of varying concentrations of the edoxaban solution, 5 μL of PCI, and 20 μL of the PPP reagent were added to each well of a 96-well plate (Sumilon Proteosave SS 96F plate, MS-8296F). […] Absorbance at 405 nm was measured every 30 seconds using SpectraMAX 384 Plus prewarmed to 37° C. The time for the absorbance to decrease to ½ of the peak from the time to reach ½ of the peak was calculated using SoftMax Pro 5.4.1 and used as clot lysis time. […]
Two experiments were conducted on each of 3 lots of human plasma (n=6). The basic statistics (mean, standard deviation, and standard error) of the clot lysis time were calculated, and the results were indicated by mean±standard error (SEM). […] Concentration dependence was evaluated by Spearman's rank correlation coefficient hypothesis test. […]

For assay [2] the test system is unchanged. As to the kind of experiment: Fibrinolysis assay (clot lysis time induced by tPA in human plasma), Example 1. The format is biochemical. As to conditions: tPA 180 ng/mL, edoxaban 18.8 ng/mL to 300 ng/mL, vs control. Here is the method:
Edoxaban was dissolved in dimethyl sulfoxide (hereinafter, also referred to as “DMSO”) (Wako Pure Chemical Industries, Ltd.) to prepare a 10 mM solution, which was then stored at −30° C. Before use, the frozen product was thawed and diluted with DMSO and saline (Otsuka Pharmaceutical Factory, Inc.) (DMSO concentration in test substance solution: 0.96%, final DMSO concentration in reaction system: 0.08%).
Hepes buffer: Hepes (Sigma-Aldrich, Co. LLC.) and NaCl (Nacalai Tesque Inc.) were dissolved at 20 mM and 140 mM, respectively, in distilled water, and the solution was adjusted to pH 7.4 using a 1 mol/L sodium hydroxide solution (Nacalai Tesque Inc.). […]
70 μL of the human plasma sample (containing tPA), 10 μL each of varying concentrations of the edoxaban solution, and 20 μL of the PPP reagent were added to each well of a 96-well plate (Sumilon Proteosave SS 96F plate, MS-8296F). […] Absorbance at 405 nm was measured every 30 seconds using SpectraMAX 384 Plus (Molecular Devices, LLC.) prewarmed to 37° C. The time for the absorbance to return to ½ of the peak from the time to reach ½ of the peak was calculated using SoftMax Pro 5.4.1 (Molecular Devices, LLC.) and used as clot lysis time. […]
Two experiments were conducted on each of 3 lots of human plasma (n=6). […] The calculated P value was rounded off and indicated by three decimal places. […]

Take `CN1CCc2nc(C(=O)N[C@@H]3C[C@@H](C(=O)N(C)C)CC[C@@H]3NC(=O)C(=O)Nc3ccc(Cl)cn3)sc2C1` [Edoxaban, N-(5-chloropyridin-2-yl)-N′-[(1S,2R,4S)-4-(dimethylcarbamoyl)-2-(5-methyl-4,5,6,7-tetrahydro[1,3]thiazolo[5,4-c]pyridine-2-carboxamido)cyclohexyl]oxamide]: the clot lysis time result in assay [1] (edoxaban alone 150 and 300 ng/mL) is “significantly shortened the clot lysis time in a concentration-dependent manner”; in assay [2] it was “significantly shortened the clot lysis time in a concentration-dependent manner”.
For the compound “PCI: carboxypeptidase inhibitor from potato tuber, a TAFIa inhibitor (Sigma-Aldrich) (QQHADPICNKPCKTHDDCSGAWFCQACWNSARTCGPYVG; UniProt P01075 1-39, looked up)”, in assay [1] (PCI alone 0.3 to 3 μg/mL), the clot lysis time entry was “significantly shortened the clot lysis time in a concentration-dependent manner”.
